Laboratory results taken from ChEMBL document CHEMBL1144524, “Discovery of 7alpha-substituted dihydrotestosterones as androgen receptor pure antagonists and their structure-activity relationships” (Bioorg Med Chem, 2007).
Active and inactive are the calls of the source. No cut-off for these calls is given here.

What was measured:
Androgen receptor [1] = target: T1, Androgen receptor (Homo sapiens, UniProt P10275)
T1 sequence (P10275 whole entry): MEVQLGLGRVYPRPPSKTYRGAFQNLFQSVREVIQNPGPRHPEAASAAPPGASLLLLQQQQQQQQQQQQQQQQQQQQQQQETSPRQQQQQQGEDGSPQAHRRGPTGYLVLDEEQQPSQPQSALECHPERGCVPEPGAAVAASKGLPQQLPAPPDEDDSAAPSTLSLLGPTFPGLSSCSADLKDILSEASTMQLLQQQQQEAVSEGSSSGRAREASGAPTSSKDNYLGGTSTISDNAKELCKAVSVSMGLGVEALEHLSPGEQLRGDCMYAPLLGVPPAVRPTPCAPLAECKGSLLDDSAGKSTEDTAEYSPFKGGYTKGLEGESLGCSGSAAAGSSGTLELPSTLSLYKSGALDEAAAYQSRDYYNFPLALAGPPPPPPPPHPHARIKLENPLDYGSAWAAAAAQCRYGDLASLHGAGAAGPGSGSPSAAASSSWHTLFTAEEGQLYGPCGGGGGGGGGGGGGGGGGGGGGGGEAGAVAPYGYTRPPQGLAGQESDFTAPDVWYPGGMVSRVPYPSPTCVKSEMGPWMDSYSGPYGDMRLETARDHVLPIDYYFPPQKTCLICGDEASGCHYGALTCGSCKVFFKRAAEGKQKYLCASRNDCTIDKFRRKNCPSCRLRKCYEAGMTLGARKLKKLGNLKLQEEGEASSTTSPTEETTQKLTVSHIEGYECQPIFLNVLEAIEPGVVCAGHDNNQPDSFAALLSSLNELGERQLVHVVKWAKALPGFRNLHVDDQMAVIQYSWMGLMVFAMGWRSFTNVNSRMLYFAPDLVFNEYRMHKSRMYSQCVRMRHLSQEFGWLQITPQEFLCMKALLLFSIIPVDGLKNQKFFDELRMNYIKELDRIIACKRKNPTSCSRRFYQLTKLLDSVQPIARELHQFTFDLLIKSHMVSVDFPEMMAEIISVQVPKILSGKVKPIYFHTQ
Description: Antagonist activity at androgen receptor expressed in HeLa cells assessed as inhibition of dihydrotestosterone-induced transcriptional activity by reporter gene assay

[2] = target: T2, Androgen receptor (Homo sapiens) (UniProt P10275); conditions: HeLa
T2 sequence (whole entry): T1 sequence (P10275 whole entry)
Description: Agonist activity at androgen receptor expressed in HeLa cells assessed as effect on dihydrotestosterone-induced transcriptional activity by reporter gene assay

Androgen receptor [3] = target: T1, Androgen receptor; assay: biochemical
Description: Displacement of [3H]mibolerone from androgen receptor expressed in CHOK1 cells

Mus musculus [4] = assay: Effect on po dosed seminal vesicle wet weight in mouse; type: functional, organism-based
Mus musculus [5] = assay: Effect on subcutaneously dosed seminal vesicle wet weight in mouse; type: functional, organism-based

Row | Compound | IC50 (Androgen receptor [1]) [nM] | FI5 [2] [nM] | IC50 (Androgen receptor [3]) [nM] | Activity (Mus musculus [4]) | Activity (Mus musculus [5])
1 | CCN(CC)C(=O)CCCCCCC1C[C@H]2CC(=O)CC[C@]2(C)[C@H]2CC[C@]3(C)[C@@H](O)CC[C@H]3[C@H]12 (some centres not stated) | 530 | 1700 | 330 | – | –
2 | CCNC(=O)CCCCCCCC1C[C@H]2CC(=O)CC[C@]2(C)[C@H]2CC[C@]3(C)[C@@H](O)CC[C@H]3[C@H]12 (some centres not stated) | 940 | > 10000 | 1500 | – | –
3 | C[C@]12CC[C@H]3[C@@H]([C@H](CCCCCCC[S+]([O-])CCCC(F)(F)C(F)(F)F)CC4CC(=O)CC[C@@]43C)[C@@H]1CC[C@@H]2O (some centres not stated) | > 10000 | 200 | 960 | – | –
4 | CCCCNC(=O)CCCCCCCC1C[C@H]2CC(=O)CC[C@]2(C)[C@H]2CC[C@]3(C)[C@@H](O)CC[C@H]3[C@H]12 (some centres not stated) | 6300 | 1600 | – | – | –
5 | C[C@]12CCC(=O)C[C@@H]1CC(CCCCCCCC(=O)N1CCOCC1)[C@@H]1[C@@H]2CC[C@]2(C)[C@@H](O)CC[C@@H]12 (some centres not stated) | – | > 10000 | – | – | –
6 | CN(Cc1ccccc1)C(=O)CCCCCCCC1C[C@H]2CC(=O)CC[C@]2(C)[C@H]2CC[C@]3(C)[C@@H](O)CC[C@H]3[C@H]12 (some centres not stated) | – | > 10000 | – | – | –
7 | C[C@]12CC[C@H]3[C@@H]([C@H](CCCCCCCCCCCCC[S+]([O-])CCCC(F)(F)C(F)(F)F)CC4CC(=O)CC[C@@]43C)[C@@H]1CC[C@@H]2O (some centres not stated) | 10000 | > 10000 | > 10000 | – | –
8 | C[C@]12CC[C@H]3[C@@H]([C@H](CCCCCCCCCCC[S+]([O-])CCCC(F)(F)C(F)(F)F)CC4CC(=O)CC[C@@]43C)[C@@H]1CC[C@@H]2O (some centres not stated) | > 10000 | > 10000 | > 10000 | – | –
9 | C[C@]12CCC(=O)C[C@@H]1CC(CCCCCCCC(N)=O)[C@@H]1[C@@H]2CC[C@]2(C)[C@@H](O)CC[C@@H]12 (some centres not stated) | 450 | 2400 | 260 | – | –
10 | CCN(C)C(=O)CCCCCCCC1C[C@H]2CC(=O)CC[C@]2(C)[C@H]2CC[C@]3(C)[C@@H](O)CC[C@H]3[C@H]12 (some centres not stated) | 420 | > 10000 | 660 | – | –
11 | CN(C)C(=O)CCCCCCCC1C[C@H]2CC(=O)CC[C@]2(C)[C@H]2CC[C@]3(C)[C@@H](O)CC[C@H]3[C@H]12 (some centres not stated) | 190 | > 10000 | 260 | Active | Active
12 | CCCCN(C)C(=O)CCCCCCCC[C@@H]1CC2CC(=O)CC[C@]2(C)[C@H]2CC[C@]3(C)[C@@H](O)CC[C@H]3[C@H]12 (some centres not stated) | 3400 | 550 | 550 | – | –
13 | CCCCCCN(CCCCCC)C(=O)CCCCCCCC1C[C@H]2CC(=O)CC[C@]2(C)[C@H]2CC[C@]3(C)[C@@H](O)CC[C@H]3[C@H]12 (some centres not stated) | > 10000 | > 10000 | > 10000 | – | –
14 | CCCCN(C)C(=O)CCCCCCCCCC[C@@H]1CC2CC(=O)CC[C@]2(C)[C@H]2CC[C@]3(C)[C@@H](O)CC[C@H]3[C@H]12 (some centres not stated) | 1300 | 1900 | 1900 | – | –
15 | C[C@]12CC[C@H]3[C@@H]([C@H](CCCCCCCCC[S+]([O-])CCCC(F)(F)C(F)(F)F)CC4CC(=O)CC[C@@]43C)[C@@H]1CC[C@@H]2O (some centres not stated) | 2900 | 490 | 110 | – | –
16 | CCCCN(C)C(=O)CCCCCCCCCCC[C@@H]1CC2CC(=O)CC[C@]2(C)[C@H]2CC[C@]3(C)[C@@H](O)CC[C@H]3[C@H]12 (some centres not stated) | 3500 | 9900 | 9900 | – | –
17 | CCN(CC)C(=O)CCCCCCCC1C[C@H]2CC(=O)CC[C@]2(C)[C@H]2CC[C@]3(C)[C@@H](O)CC[C@H]3[C@H]12 (some centres not stated) | 300 | > 10000 | 120 | – | –
18 | CCCCN(C)C(=O)CCCCCCC[C@@H]1CC2CC(=O)CC[C@]2(C)[C@H]2CC[C@]3(C)[C@@H](O)CC[C@H]3[C@H]12 (some centres not stated) | 340 | 280 | 280 | – | –
19 | CCCCN(C)C(=O)CCCCCCCC1C[C@H]2CC(=O)CC[C@]2(C)[C@H]2CC[C@]3(C)[C@@H](O)CC[C@H]3[C@H]12 (some centres not stated) | 340 | > 10000 | 280 | – | –
20 | CN(C)C(=O)CCCCCCC1C[C@H]2CC(=O)CC[C@]2(C)[C@H]2CC[C@]3(C)[C@@H](O)CC[C@H]3[C@H]12 (some centres not stated) | 200 | 490 | 110 | – | –
21 | CCCCN(C)C(=O)CCCCCCCCC[C@@H]1CC2CC(=O)CC[C@]2(C)[C@H]2CC[C@]3(C)[C@@H](O)CC[C@H]3[C@H]12 (some centres not stated) | 1800 | 570 | 570 | – | –
22 | CCCNC(=O)CCCCCCCC1C[C@H]2CC(=O)CC[C@]2(C)[C@H]2CC[C@]3(C)[C@@H](O)CC[C@H]3[C@H]12 (some centres not stated) | 1800 | > 10000 | 1600 | – | –
23 | CC(C)N(C)C(=O)CCCCCCCC1C[C@H]2CC(=O)CC[C@]2(C)[C@H]2CC[C@]3(C)[C@@H](O)CC[C@H]3[C@H]12 (some centres not stated) | 420 | > 10000 | 430 | – | –
24 | C[C@]12CCC(=O)C[C@@H]1CC(CCCCCCCC(=O)N1CCCC1)[C@@H]1[C@@H]2CC[C@]2(C)[C@@H](O)CC[C@@H]12 (some centres not stated) | 300 | > 10000 | 350 | – | –
25 | CCCCCCNC(=O)CCCCCCCC1C[C@H]2CC(=O)CC[C@]2(C)[C@H]2CC[C@]3(C)[C@@H](O)CC[C@H]3[C@H]12 (some centres not stated) | 6600 | > 10000 | 2100 | – | –
26 | CCCN(C)C(=O)CCCCCCCC1C[C@H]2CC(=O)CC[C@]2(C)[C@H]2CC[C@]3(C)[C@@H](O)CC[C@H]3[C@H]12 (some centres not stated) | 1100 | > 10000 | 300 | – | –
27 | CNC(=O)CCCCCCCC1C[C@H]2CC(=O)CC[C@]2(C)[C@H]2CC[C@]3(C)[C@@H](O)CC[C@H]3[C@H]12 (some centres not stated) | 480 | > 10000 | 710 | – | –
28 | C[C@]12CCC(=O)C[C@@H]1CC(CCCCCCCC(=O)N1CCCCC1)[C@@H]1[C@@H]2CC[C@]2(C)[C@@H](O)CC[C@@H]12 (some centres not stated) | – | > 10000 | – | – | –
29 | C[C@]12CC[C@H]3[C@@H]([C@H](CCCCC[S+]([O-])CCCC(F)(F)C(F)(F)F)CC4CC(=O)CC[C@@]43C)[C@@H]1CC[C@@H]2O (some centres not stated) | > 10000 | 16 | 6800 | – | –
